Results published in US10653796B2, “Liposomes containing cell penetrating peptides and tetraetherlipids for the oral delivery of macromolecules” (Universität Heidelberg, priority 2015, dated 2020).

Legend:
[1] = Radioactivity at determined time points after oral application of radiolabeled substances; assay type: in vivo; details: radiolabeled substance
[2] = Bioavailability (absolute) of oral liposomal Vancomycin versus i.v.; assay type: in vivo; details: male, Wistar, rat, whole blood; oral liposomal formulation containing 1 mol-% of the cyclic CPP-liposomes, rats; read-out: bioavailability (absolute) in comparison with the i.v. application
Experimental: The animal study was performed according to local authorities using male Wistar rats with a body weight of about 200-250 g. For the determination of the bioavailability (absolute) the glycopeptide antibiotic Vancomycin was radiolabeled with ^131I and incorporated into the liposomal formulation containing 1 mol-% of the cyclic CPP-phospholipid-conjugate and compared with Vancomycin i.v. as described previously. At several time points, the blood levels of Vancomycin were measured by direct counting of the radiolabeled sample. Briefly, groups (n≥3) of male Wistar rats were formed. Prior to 12 h of the experiment, the rats were kept without food, but with free access to water. Oral application of the liposomes took place by gavage. The blood was removed, weighed and the radioactivity was measured using a Berthold LB 951 G counter in comparison with standards. The blood-associated activity was related to the total injected dose (ID) and expressed as a percentage of the total injected dose per gram of tissue (% ID/g).

[3] = Oral availability of radiolabeled Adalimumab; assay type: in vivo, male Wistar rats; details: liposomes containing 1 mol-% cyclic CPP-conjugate vs radiolabeled free antibody, 6 h, rats
Experimental: The animal study was performed according to local authorities using male Wistar rats with a body weight of about 200-250 g. For the determination of the bioavailability (absolute), the antibody Adalimumab (Humira®) was radiolabeled with ^131I and incorporated into the liposomal formulation containing 1 mol-% of the cyclic CPP-phospholipid-conjugate and compared with the free antibody as described previously. After 6 h, the blood levels were measured by direct counting of the radiolabeled sample. Prior to 12 h of the experiment, the rats were kept without food, but with free access to water. Oral application of the liposomes and the radiolabeled free antibody took place by gavage. The blood was removed, weighed and the radioactivity was measured using a Berthold LB 951 G counter in comparison with standards. The blood-associated activity was related to the total injected dose (ID) and expressed as a percentage of the total injected dose per gram of tissue (% ID/g) (FIG. 16).

Compound	mucosal uptake by the liposomal formulations [1]	bioavailability [2]	oral availability [3]
CCCCCCCCCCCCCCCC(=O)N[C@@H](CCC(=O)NCCCC[C@H](NC(=O)[C@H](C)NC(=O)[C@H](C)NC(=O)[C@H](CCC(N)=O)NC(=O)CNC(=O)[C@H](CCC(=O)O)NC(=O)[C@H](CC(C)C)NC(=O)[C@H](Cc1ccc(O)cc1)NC(=O)[C@H](CO)NC(=O)[C@H](CO)NC(=O)[C@@H](NC(=O)[C@H](CC(=O)O)NC(=O)[C@H](CO)NC(=O)[C@@H](NC(=O)[C@H](Cc1ccccc1)NC(=O)[C@@H](NC(=O)CNC(=O)[C@H](CCC(=O)O)NC(=O)[C@H](C)NC(=O)[C@@H](N)Cc1cnc[nH]1)[C@@H](C)O)[C@@H](C)O)C(C)C)C(=O)N[C@@H](CCC(=O)O)C(=O)N[C@@H](Cc1ccccc1)C(=O)N[C@H](C(=O)N[C@@H](C)C(=O)N[C@@H](Cc1c[nH]c2ccccc12)C(=O)N[C@@H](CC(C)C)C(=O)N[C@H](C(=O)N[C@@H](CCCNC(=N)N)C(=O)NCC(=O)N[C@@H](CCCNC(=N)N)C(=O)NCC(=O)O)C(C)C)[C@@H](C)CC)C(=O)O [Liraglutide]	strongly enhanced mucosal uptake		
CN[C@H](CC(C)C)C(=O)N[C@H]1C(=O)N[C@@H](CC(N)=O)C(=O)N[C@H]2C(=O)N[C@H]3C(=O)N[C@H](C(=O)N[C@H](C(=O)O)c4cc(O)cc(O)c4-c4cc3ccc4O)[C@H](O)c3ccc(c(Cl)c3)Oc3cc2cc(c3O[C@@H]2O[C@H](CO)[C@@H](O)[C@H](O)[C@H]2O[C@H]2C[C@](C)(N)[C@H](O)[C@H](C)O2)Oc2ccc(cc2Cl)[C@H]1O [Vancomycin]		≤ 50%	
Adalimumab	strongly enhanced mucosal uptake		strong increase
